Reference: patent US5545755A, “Therapeutically useful 2-aminotetralin derivatives” (priority 1995, dated 1996)
Structures can show the parent of a compound that is named as a salt. Where two headings read alike, the source gives them in different places.

Assays:
[1] = molecular target: T1, 5-hydroxytryptamine (5-HT1A) receptor (Bos taurus, UniProt F6Q2H9); experiment: Inhibition of 8-OH-DPAT binding in a bovine brain homogenate (5-HT1A binding)
T1 construct: bovine brain homogenate; from tissue; host or cells: bovine brain homogenate
T1 sequence (F6Q2H9 1-422): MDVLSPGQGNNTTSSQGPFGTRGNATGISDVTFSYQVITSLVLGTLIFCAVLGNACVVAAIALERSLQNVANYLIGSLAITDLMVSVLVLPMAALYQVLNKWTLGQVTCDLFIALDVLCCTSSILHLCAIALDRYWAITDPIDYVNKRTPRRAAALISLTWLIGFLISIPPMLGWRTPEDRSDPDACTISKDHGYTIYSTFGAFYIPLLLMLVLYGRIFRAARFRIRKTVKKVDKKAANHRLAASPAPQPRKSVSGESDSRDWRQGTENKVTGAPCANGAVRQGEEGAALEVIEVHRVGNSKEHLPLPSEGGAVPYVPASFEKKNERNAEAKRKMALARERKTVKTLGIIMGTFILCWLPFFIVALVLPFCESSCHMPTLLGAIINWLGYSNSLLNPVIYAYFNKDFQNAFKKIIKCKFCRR
From the text: Binding: Inhibition of 8-OH-DPAT binding in a bovine brain homogenate. Potency is given as nM dose required to inhibit 50% of DPAT binding (IC50). This test measures ability to bind to 5-hydroxytryptamine (5-HT1A) receptor.

[2] = Hypothermia in mice after subcutaneous injection; type: in vivo; conditions: Mus musculus, sc, dose depressing temperature by 2° C. in two of four mice
Protocol: Hypothermia: Starting with a dose of 30 mg/kg, four mice are injected subcutaneously with test compound. Twenty minutes later, the number of animals whose body temperature has decreased by 2° C. or more are counted. […] The time for last statistically significant drug affect on mean body temperature is indicated in minutes. […] Potency is given as mg/kg ED50 (dose required to depress temperature in two of four mice) as measured by Spearman-Karber statistics.

[3] = Blood pressure in chloralose anesthetized cats (BP SND/MAX); type: in vivo; conditions: i.v., blood pressure in percent control at the dose causing 50% depression in SND
Protocol: BP SND/MAX: The blood pressure of the chloralose anesthetized cats in percent control at the dose causing 50% depression in SND and the maximum reduction in blood pressure as percent of the control blood pressure in the same animals observed in the dose range tested (0.001-1.0 mg/kg i.v.).

[4] = test system: sympathetic nerve discharge; experiment: Sympathetic Nerve Discharge (SND) in chloralose anesthetized cats; type: in vivo; conditions: Felis catus, iv, dose causing 50% depression in SND
Protocol: Sympathetic Nerve Discharge (SND): The i.v. mg/kg dose causing a 50% depression in SND in chloralose anesthetized cats and the maximum inhibition of sympathetic activity observed in the dose range tested (0.001-1.0 mg/kg i.v.).

[5] = J. Pharm. Sci., 67, 880-82 (1978); cited from earlier work
[6] = Chem. Ab., 79:146294b; cited from earlier work
D2 receptor = D2 receptor (Homo sapiens, UniProt P14416); experiment: Dopamine D2 receptor in vitro binding
From the text: The compounds of this invention where R1 is in the 8 position in the aromatic ring are very selective 5-HT1A receptor agonists having little or no dopaminergic activity. […] Both these features are beneficial to effective clinical treatment.

dopamine receptors = conditions: cited from earlier work
[7] = some patients; cited from earlier work

Sequence of D2 receptor (P14416 whole entry): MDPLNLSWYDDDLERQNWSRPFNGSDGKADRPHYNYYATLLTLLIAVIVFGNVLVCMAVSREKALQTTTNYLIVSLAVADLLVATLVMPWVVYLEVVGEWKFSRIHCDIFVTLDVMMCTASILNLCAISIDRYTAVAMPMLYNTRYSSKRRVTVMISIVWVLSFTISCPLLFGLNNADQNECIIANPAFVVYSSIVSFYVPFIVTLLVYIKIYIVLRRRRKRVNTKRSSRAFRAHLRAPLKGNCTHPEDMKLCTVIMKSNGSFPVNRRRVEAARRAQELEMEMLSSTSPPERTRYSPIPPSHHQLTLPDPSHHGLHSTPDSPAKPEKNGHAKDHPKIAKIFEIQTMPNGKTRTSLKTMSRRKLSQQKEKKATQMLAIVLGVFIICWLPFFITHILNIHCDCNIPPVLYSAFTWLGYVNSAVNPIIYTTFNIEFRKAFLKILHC

For `CCCN(CC1CC1)C1CCc2cccc(C(N)=O)c2C1` (stereo not shown) [Example 5 Compound 2, 1,2,3,4-Tetrahydro-2-N-cyclopropylmethyl-2-N-propyl-8-yl-carboxamide], the IC50 ([1]; read-out: 5-HT1A Binding IC50) was 0.013 µM, the ED50 [2] was 0.31 mg/kg and the “% BD (at SND ED50)” value [3] was 40.0%. The ED50 [4] was 0.33 mg/kg.
For `C=CCN(CC=C)C1CCc2ccccc2C1.Cl` (racemic) [Example 21 Compound 6, (+-)-1,2,3,4-Tetrahydro-N,N-di-2-propenyl-2-naphthalenamine hydrochloride], the IC50 [1] was 0.0507 µM, the ED50 [2] was 0.97 mg/kg and the “% BD (at SND ED50)” value [3] was 52.0%. For the same compound, the ED50 [4] was 0.6 mg/kg.
For `COc1cccc2c1CCC(NC1CC1)C2C` (stereo not shown) [1-methyl-2-(cyclopropylamino)-5-methoxytetralin], the local anesthetic activity [5] is listed as “possess local anesthetic activity”.
In the case of `C=CCN[C@@H]1CCc2cccc(OC)c2[C@@H]1CC=C` (relative stereo) [Example 26 Compound 1, Cis-(+-)-1,2,3,4-Tetrahydro-8-methoxy-N,1-di-(2-pro-penyl)-2-naphthalenamine hydrochloride], the ED50 [2] is reported as 2.31 mg/kg, the “% BD (at SND ED50)” value [3] is reported as 70.0% and the ED50 [4] is reported as 0.16 mg/kg.
For `CN(C)C1CCc2ccc(O)cc2C1(C)C` (stereo not shown) [1,1-Dimethyl-2-(N,N-dimethylamino)-7-hydroxytetralin], the “analgesic and intestinal movement accelerating actions” value [6] is given as “analgesic and intestinal movement accelerating actions”.
In the case of `C=CCNC1CCc2cccc(OC)c2C1.Cl` (stereo not shown) [Example 15 Compound 27, 1,2,3,4-Tetrahydro-8-methoxy-N-2-propenyl-2-naphthalenamine hydrochloride], the IC50 [1] is reported as 0.0089 µM, the ED50 [2] is reported as 0.31 mg/kg and the “% BD (at SND ED50)” value [3] is reported as 62.0%. It also gave an ED50 [4] of 0.1 mg/kg.
With `NC(=O)c1cccc2c1CC(N1CCCCCC1)CC2` (stereo not shown) [Compound 58-1, (1-Hexahydroazepinyl)-5,6,7,8-tetrahydronaphthalene-1-carboxamide] the IC50 ([1]; read-out: 5-HT1A Binding IC50) was 0.026 µM, the ED50 [2] was 2.3 mg/kg and the IC50 (D2 receptor) was greater than 1 µM.
In the case of `CC1(C)CC(=O)N(CCCCN2CCN(c3ncccn3)CC2)C(=O)C1` [Gepirone], the dopamine receptor antagonism (dopamine receptors) is given as “has dopamine antagonist properties” and the “effect on depressive endpoints” value [7] is given as “ameliorative effects on some depressive endpoints in some patients”.
In the case of `O=C1CC2(CCCC2)CC(=O)N1CCCCN1CCN(c2ncccn2)CC1` [Buspirone], the dopamine receptor antagonism (dopamine receptors) is listed as “antagonizes dopamine receptors at the same dose it stimulates 5-HT1A receptors”.
With `C=CCNC1CCc2cccc(O)c2C1.Cl` (stereo not shown) [Example 19 Compound 2, 5,6,7,8-tetrahydro-7-(2-propenyl)amino-1-naphthalenol hydrochloride] the IC50 [1] was 0.0035 µM, the ED50 [2] was 0.73 mg/kg and the “% BD (at SND ED50)” value [3] was 78.0%. The ED50 [4] was 0.01 mg/kg.
`Brc1cccc2c1CC(N1CCCC1)CC2` (single isomer, unassigned; (+)) [Compound 59-1, (+)-1,2,3,4-tetrahydro-2-pyrrolidino-8-bromo-tetralin] gave an IC50 ([1]; read-out: 5-HT1A Binding IC50) of 0.004 µM.
In the case of `c1ccc2c(c1)CCC(N1CCCCCC1)C2` (stereo not shown) [Compound 57-3, Hexahydro-1-(1,2,3,4-tetrahydro-2-naphthalenyl)-1H-Azepine], the IC50 ([1]; read-out: 5-HT1A Binding IC50) is reported as 0.103 µM, the ED50 [2] is reported as 2.3 mg/kg and the “% BD (at SND ED50)” value [3] is reported as 75.0%. The ED50 [4] was 0.62 mg/kg.
With `C=CCN(C)C1CCc2cccc(OC)c2C1.Cl` (stereo not shown) [Example 15 Compound 12, 1,2,3,4-Tetrahydro-8-methoxy-N-methyl-N-2-propenyl-2-Naphthalenamine hydrochloride] the IC50 [1] was 0.0079 µM, the ED50 [2] was 1.2 mg/kg and the “% BD (at SND ED50)” value [3] was 79.0%. It also gave an ED50 [4] of 0.012 mg/kg.
With `NC(=O)c1cccc2c1CC(N1CCCC1)CC2` (single isomer, unassigned; (+)) [Compound 60-1, (+)-1,2,3,4-tetrahydro-2-pyrrolidino-naphthalene-8-yl-carboxamide] the IC50 ([1]; read-out: 5-HT1A Binding IC50) was 0.0109 µM.
